Reference: PubChem BioAssay (NCI)
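How tested: cells in 96-well plates exposed to compound for 48 hours at five concentrations. GI50 is the concentration that inhibits growth by half. TGI is the concentration that stops growth completely.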

Tests used:
Assay in all cases: inhibition of tumour cell growth, NCI panel, 48 h
SN12C renal = tested on: SN12C renal
MDA-MB-231 breast = tested on: MDA-MB-231 breast
ACHN renal = tested on: ACHN renal
SNB-19 CNS = tested on: SNB-19 CNS
SK-MEL-28 melanoma = tested on: SK-MEL-28 melanoma
HT29 colon = tested on: HT29 colon
NCI-H522 lung = tested on: NCI-H522 lung
MALME-3M melanoma = tested on: MALME-3M melanoma
NCI-H23 lung = tested on: NCI-H23 lung
IGROV1 ovarian = tested on: IGROV1 ovarian
CCRF-CEM leukemia = tested on: CCRF-CEM leukemia
UO-31 renal = tested on: UO-31 renal
786-0 renal = tested on: 786-0 renal
PC-3 prostate = tested on: PC-3 prostate
TK-10 renal = tested on: TK-10 renal
HCC-2998 colon = tested on: HCC-2998 colon
SK-MEL-2 melanoma = tested on: SK-MEL-2 melanoma
COLO 205 colon = tested on: COLO 205 colon
OVCAR-5 ovarian = tested on: OVCAR-5 ovarian
NCI-H460 lung = tested on: NCI-H460 lung
MDA-MB-435 = tested on: MDA-MB-435
SNB-75 CNS = tested on: SNB-75 CNS
RPMI-8226 leukemia = tested on: RPMI-8226 leukemia
LOX IMVI melanoma = tested on: LOX IMVI melanoma
NCI-H226 lung = tested on: NCI-H226 lung
SR leukemia = tested on: SR leukemia
HS 578T breast = tested on: HS 578T breast
A549 NSCLC = tested on: A549 NSCLC
M14 melanoma = tested on: M14 melanoma
HCT-116 colon = tested on: HCT-116 colon
RXF 393 renal = tested on: RXF 393 renal
UACC-257 melanoma = tested on: UACC-257 melanoma
UACC-62 melanoma = tested on: UACC-62 melanoma
DU-145 prostate = tested on: DU-145 prostate
HCT-15 colon = tested on: HCT-15 colon
MCF7 breast = tested on: MCF7 breast
HOP-62 NSCLC = tested on: HOP-62 NSCLC
T-47D breast = tested on: T-47D breast
SW-620 colon = tested on: SW-620 colon
NCI/ADR-RES ovarian = tested on: NCI/ADR-RES ovarian
KM12 colon = tested on: KM12 colon
HL-60(TB) leukemia = tested on: HL-60(TB) leukemia
K-562 leukemia = tested on: K-562 leukemia
OVCAR-3 ovarian = tested on: OVCAR-3 ovarian
CAKI-1 renal = tested on: CAKI-1 renal
BT-549 breast = tested on: BT-549 breast
OVCAR-4 ovarian = tested on: OVCAR-4 ovarian
SF-268 CNS = tested on: SF-268 CNS
MOLT-4 leukemia = tested on: MOLT-4 leukemia
U251 CNS = tested on: U251 CNS
A498 renal = tested on: A498 renal
SF-295 CNS = tested on: SF-295 CNS
HOP-92 NSCLC = tested on: HOP-92 NSCLC
OVCAR-8 ovarian = tested on: OVCAR-8 ovarian
SK-MEL-5 melanoma = tested on: SK-MEL-5 melanoma

COc1ccc(S(=O)(=O)Nc2cc(/C=C\c3cc(OC)c(OC)c(OC)c3)cc(OC)c2OC)cc1
GI50 (SN12C renal): 69.8 nM
TGI (SN12C renal): > 100000 nM
GI50 (MDA-MB-231 breast): 47.9 nM
TGI (MDA-MB-231 breast): > 100000 nM
GI50 (ACHN renal): 57 nM
TGI (ACHN renal): 23200 nM
GI50 (SNB-19 CNS): 60.1 nM
TGI (SNB-19 CNS): > 100000 nM
GI50 (SK-MEL-28 melanoma): 76.5 nM
TGI (SK-MEL-28 melanoma): > 100000 nM
GI50 (HT29 colon): 33.1 nM
TGI (HT29 colon): 122 nM
GI50 (NCI-H522 lung): 19.7 nM
TGI (NCI-H522 lung): 52 nM
GI50 (MALME-3M melanoma): 12600 nM
TGI (MALME-3M melanoma): 97300 nM
GI50 (NCI-H23 lung): 59.3 nM
TGI (NCI-H23 lung): > 100000 nM
GI50 (IGROV1 ovarian): 57.7 nM
TGI (IGROV1 ovarian): > 100000 nM
GI50 (CCRF-CEM leukemia): 32.9 nM
TGI (CCRF-CEM leukemia): > 100000 nM
GI50 (UO-31 renal): 63.5 nM
TGI (UO-31 renal): 85300 nM
GI50 (786-0 renal): 57.9 nM
TGI (786-0 renal): 22600 nM
GI50 (PC-3 prostate): 38 nM
TGI (PC-3 prostate): > 100000 nM
GI50 (TK-10 renal): 65 nM
TGI (TK-10 renal): 78000 nM
GI50 (HCC-2998 colon): 39.1 nM
TGI (HCC-2998 colon): > 100000 nM
GI50 (SK-MEL-2 melanoma): 37.4 nM
TGI (SK-MEL-2 melanoma): 63300 nM
GI50 (COLO 205 colon): 21.4 nM
TGI (COLO 205 colon): 45.9 nM
GI50 (OVCAR-5 ovarian): 49.9 nM
TGI (OVCAR-5 ovarian): > 100000 nM
GI50 (NCI-H460 lung): 36.7 nM
TGI (NCI-H460 lung): 17000 nM
GI50 (MDA-MB-435): 21.1 nM
TGI (MDA-MB-435): 48.2 nM
GI50 (SNB-75 CNS): 26.5 nM
TGI (SNB-75 CNS): > 100000 nM
GI50 (RPMI-8226 leukemia): 45.9 nM
TGI (RPMI-8226 leukemia): 13200 nM
GI50 (LOX IMVI melanoma): 50 nM
TGI (LOX IMVI melanoma): > 100000 nM
GI50 (NCI-H226 lung): 27300 nM
TGI (NCI-H226 lung): > 100000 nM
GI50 (SR leukemia): 35.2 nM
TGI (SR leukemia): 2370 nM
GI50 (HS 578T breast): 45.2 nM
TGI (HS 578T breast): > 100000 nM
GI50 (A549 NSCLC): 47.4 nM
TGI (A549 NSCLC): > 100000 nM
GI50 (M14 melanoma): 30.1 nM
TGI (M14 melanoma): > 100000 nM
GI50 (HCT-116 colon): 35 nM
TGI (HCT-116 colon): > 100000 nM
GI50 (RXF 393 renal): 40.1 nM
TGI (RXF 393 renal): 72400 nM
GI50 (UACC-257 melanoma): 4100 nM
TGI (UACC-257 melanoma): 98900 nM
GI50 (UACC-62 melanoma): 46.1 nM
TGI (UACC-62 melanoma): 69400 nM
GI50 (DU-145 prostate): 41.6 nM
TGI (DU-145 prostate): > 100000 nM
GI50 (HCT-15 colon): 35.8 nM
TGI (HCT-15 colon): > 100000 nM
GI50 (MCF7 breast): 36 nM
TGI (MCF7 breast): > 100000 nM
GI50 (HOP-62 NSCLC): 40.8 nM
TGI (HOP-62 NSCLC): > 100000 nM
GI50 (T-47D breast): 5210 nM
TGI (T-47D breast): > 100000 nM
GI50 (SW-620 colon): 43.9 nM
TGI (SW-620 colon): > 100000 nM
GI50 (NCI/ADR-RES ovarian): 35.3 nM
TGI (NCI/ADR-RES ovarian): 81500 nM
GI50 (KM12 colon): 39.7 nM
TGI (KM12 colon): > 100000 nM
GI50 (HL-60(TB) leukemia): 23.4 nM
TGI (HL-60(TB) leukemia): 63.5 nM
GI50 (K-562 leukemia): 27.2 nM
TGI (K-562 leukemia): 48200 nM
GI50 (OVCAR-3 ovarian): 34.5 nM
TGI (OVCAR-3 ovarian): 97.7 nM
GI50 (CAKI-1 renal): 53.1 nM
TGI (CAKI-1 renal): 30900 nM
GI50 (BT-549 breast): 42.5 nM
TGI (BT-549 breast): 79000 nM
GI50 (OVCAR-4 ovarian): 84.2 nM
TGI (OVCAR-4 ovarian): > 100000 nM
GI50 (SF-268 CNS): 57.5 nM
TGI (SF-268 CNS): > 100000 nM
GI50 (MOLT-4 leukemia): 49.5 nM
TGI (MOLT-4 leukemia): > 100000 nM
GI50 (U251 CNS): 35.7 nM
TGI (U251 CNS): > 100000 nM
GI50 (A498 renal): 21.7 nM
TGI (A498 renal): 92.4 nM
GI50 (SF-295 CNS): 31.1 nM
TGI (SF-295 CNS): > 100000 nM
GI50 (HOP-92 NSCLC): 1760 nM
TGI (HOP-92 NSCLC): 82300 nM
GI50 (OVCAR-8 ovarian): 45.9 nM
TGI (OVCAR-8 ovarian): > 100000 nM
GI50 (SK-MEL-5 melanoma): 35.9 nM
TGI (SK-MEL-5 melanoma): 168 nM
